This is an account of results in US20090291939A1, “Treating Alcohol And Or Substance Abuse By Antagonizing Alpha 2 Adrenergic Receptors With Weak Dopamine Blocking” (priority 2002, published 2009).

For series [1], the system named is golden hamster. The conditions noted are these: cited from earlier work.
Series [2] concerns animals. To be noted: cited from earlier work.
Series [3] concerns Syrian golden hamsters. Nature of the series: Free choice alcohol drinking in Syrian golden hamsters with daily s.c. drug treatment. To be noted: for body weight, change from baseline: 9-day treatment period; for alcohol consumption during post-hoc period: post-hoc: CLOZ animals 2 days lower dose then 22 days vehicle, HAL animals 0.6, 0.8, then 1 mg/kg over 15 days.

“Also recorded” adds a separate entry of the source.

As to `O=c1c(-c2ccc(O)cc2)coc2cc(O[C@@H]3O[C@H](CO)[C@@H](O)[C@H](O)[C@H]3O)ccc12` [Daidzin], the alcohol drinking entry in series [1] is recorded as “decreases alcohol drinking”.

For the molecule `CN[C@H]1CC[C@@H](c2ccc(Cl)c(Cl)c2)c2ccccc21` [sertraline], the alcohol consumption entry in series [2] is “inhibit alcohol consumption”.

For `O=C1CC[C@@]2(O)[C@H]3Cc4ccc(O)c5c4[C@@]2(CCN3CC2CC2)[C@H]1O5` [naltrexone], in series [2], the alcohol consumption entry is recorded as “inhibit alcohol consumption”.

On to `CN1CCN(C2=Nc3cc(Cl)ccc3Nc3ccccc32)CC1` [CLOZ, clozapine], for which the “body weight, change from baseline” value in series [3] is on record as “lost weight”. For the same molecule, the “time to onset of decrease in alcohol drinking after first injection” value in series [3] (first CLOZ injection 2 mg/kg s.c., treatment day #2) is at most 27 h. Moreover, the “alcohol consumption, % of baseline” value in series [3] (treatment period, by day #6, after four days of 4 mg/kg/day CLOZ s.c.) is recorded as 10 % of baseline.

For `C=CCN1CC[C@]23c4c5ccc(O)c4O[C@H]2C(=O)CC[C@@]3(O)[C@H]1C5` [naloxone], the alcohol consumption result in series [2] is “inhibit alcohol consumption”.

Turning to `O=C(CCCN1CCC(O)(c2ccc(Cl)cc2)CC1)c1ccc(F)cc1` [HAL, haloperidol], in series [3], the “body weight, change from baseline” value was “stayed the same” and the “alcohol consumption during post-hoc period” value is given as “did not change; also recorded: no change in alcohol drinking”. Moreover, the “alcohol drinking, change during treatment period” value in series [3] (9-day treatment: CLOZ 2 then 4 mg/kg, HAL 0.2 then 0.4 mg/kg, s.c. daily) is “unchanged”. The “alcohol use over full 24 days of treatment” value in series [3] (HAL dose ranging from 0.2 mg/kg to 1 mg/kg, including 11 days at highest dose) is recorded as “no evidence of a decrease in alcohol use”. The “alcohol consumption during post-hoc period” value in series [3] (listed as haloperidol) was “no decrease in drinking”.
